What was measured:
[1] = tested on: catalytic subunit of glucose-6-phosphatase; experiment: Affymetrix GeneChip expression of glucose-6-phosphatase catalytic subunit in H-4-II-E rat liver cells; format: cell-based; conditions: H-4-II-E cells, 24 h; 50 μM EGCG, 1 μM biotin, 50 μM cysteamin; Affymetrix Id 1370725_a_at; triplicate
Method: The Affymetrix GeneChip® high-density oligonucleotide microarray approach was chosen to determine the global gene expression in H-4-II-E rat liver cells.
H-4-II-E rat liver cells were obtained from the American Type Culture Collection (ATCC) and cultured in Medium 199 (Invitrogen) Basel, Switzerland) supplemented with 10% fetal calf serum in a humidified 5% CO2 atmosphere at 37° C. Cells were regularly passaged at subconfluence and used at low passage numbers. For the final assays, cells were trypsinized, seeded at a density of 1×10^6 cells/well in 6-well cell culture plates and maintained in Medium 199 & 0.1% BSA (Invitrogen) for another 6 h before compounds were applied. EGCG was applied in DMSO; cysteamin was first solved in 1M HCl and then applied to the stimulation medium, biotin was directly dissolved into the medium. After 24 h treatment, total RNA was harvested.
A total number of 24 samples were prepared following the Affymetrix GeneChip® array protocol (Affymetrix, Santa Clara, Calif., USA). Briefly, total cellular RNA was extracted by using Qiagen RNeasy Mini Kit with an on-column RNase-free DNase I digest (Qiagen, Basel, Switzerland). A T7-(T)24 primer (5′-[sequence] [sequence]-(dT)24-3′) was annealed to 10 kg of total RNA and Superscript II reverse transcriptase (400 U) was utilized to synthesize first-strand cDNA in the presence of DTT, dNTPs and 1× reaction buffer. Second strand synthesis was performed by adding E. coli DNA polymerase I (40 U), E. coli ligase (10 U) and RNase H (2 U) in a final reaction containing 1× second strand buffer in the presence of dNTPs. Finally strands were blunted using T4 DNA polymerase (10 U) (Superscript™ Microarray Customized Kit, Invitrogen, Basel, CH). cDNA was purified by phenol/chloroform extraction and subsequently in vitro transcription was carried out for 3 h using T7 RNA polymerase (Megascript™ T7 Kit, Ambion, Tex., USA), incorporating bio-16-UTPs and bio-11-CTPs (Roche Molecular Biochemicals, Penzberg, Germany). […]

[2] = tested on: streptozotocin-diabetic rats (IDDM); experiment: Oral glucose tolerance in streptozotocin-diabetic rats; format: in vivo; conditions: biotin orally (2-16 mg/day) or parentally (0.1 mg/day)
Source text: (§1) Biotin: Biotin supplementation enhances hepatic glucose clearance which results in a decrease of circulating glucose concentration and induces decrease in the hepatic PEPCK activity. PEPCK is a rate-limiting cytosolic enzyme that catalyses the first committed step of hepatic gluconeogenesis. Decrease of hepatic PEPCK activity results in a decrease in liver glucose output.

[3] = tested on: C57BLKS/J db/db mice; experiment: Glucose removal after oral glucose load (OGTT) in db/db mice, 5-week study; format: in vivo; conditions: for Glucose removal rate (% glucose decrease of control) 90 min / Glucose removal rate (% glucose decrease of control) 120 min / Glucose removal rate (% glucose decrease of control) 150 min / Glucose removal rate (% glucose decrease of control) 180 min: OGTT (1 g glucose/kg) in db/db mice after 4 weeks feed-ad-mix, biotin 8 mg/kg BW/day, phytanic acid 300 mg/kg BW/day; for Blood glucose levels during the glucose load compared to the control group: db/db mice, glucose load 1 g/kg, 90-180 min, biotin 8, phytanic acid 300 mg/kg BW/day
Method: The efficacy of the combination of biotin and phytanic acid as well as of both compounds alone on glucose removal was tested in a 5-week study in C57BLKS/J db/db mice (n=7−8/group). This model of late type 2 diabetes with severe hyperglycemia is widely used to determine the efficacy of anti-diabetic compounds.
Male db/db mice were obtained from Jackson Laboratory (Bar Harbor, Me., USA). Adult mice aged 8 weeks were used in the experiment. Mice were housed individually in plastic cages with bedding and allowed free access to standard rodent food and tap water. The animal rooms were controlled for temperature (24° C.), humidity (55%), and light (12-h light-dark cycle). The animals were randomized into four groups. Biotin and phytanic acid were administered as feed-ad-mix. Corn oil (1% of diet) served as a carrier substance for biotin and phytanic acid as well as a placebo when used alone. Group 1 received placebo, group 2 received biotin at a dose of 8 mg/kg body weight (BW)/day, group 3 received phytanic acid at a dose of 300 mg/kg BW/day, and group 4 received the combination of biotin and phytanic acid at a doses of 8 and 300 mg/kg BW/day, respectively. After 4 weeks of treatment glucose removal was assessed 90, 120, 150 and 180 minutes after an oral glucose load (1 g/kg body weight). Blood samples were obtained 90, 120, 150, 180 minutes from the tail vein for determination of blood glucose levels. Blood glucose was measured by a glucose analyzer (Glucotrend Premium, Roche Diagnostics, Rotkreuz, Switzerland). All data are expressed as means for animals in each diet group. Statistical significance of the mean differences between dietary groups was tested by one-way analysis of variance (ANOVA). If significant differences were found, the Dunnett's test for multiple comparison was used to compare each group to the control group. P values less than 0.05 were considered significant. All analyses were performed with Statistica (ver. 5.5A, StatSoft, Inc).
GRR is defined as the speed at which glucose is removed from blood and directed to the peripheral tissues. At 90, 120, 150 and 180 minutes after application of the glucose load blood glucose levels in animals treated with the combination of biotin and phytanic acid decreased to a greater extent than excepted by the decrease due to monotherapy with biotin or phytanic acid. […] To evaluate the GRR the glucose levels were expressed as the percent change of glucose levels for each group compared to the control group. The expected GRR is defined as the sum of the GRR exerted by biotin and by phytanic acid when used as a monotherapy.

[4] = tested on: type 1 and type 2 diabetic patients; experiment: Preliminary human studies, fasting blood glucose after biotin supplementation; format: in vivo
Source text: as §1

[5] = tested on: diabetic KK mice (NIDDM model); experiment: Oral glucose tolerance in diabetic KK mice; format: in vivo; conditions: biotin orally (2-16 mg/day) or parentally (0.1 mg/day)
Source text: as §1

[6] = tested on: pre-diabetic Otsuka Long-Evans Tokushima fatty (OLETF) rats (NIDDM); experiment: Oral glucose tolerance in pre-diabetic OLETF rats; format: in vivo; conditions: biotin orally (2-16 mg/day) or parentally (0.1 mg/day)
Source text: as §1

[7] = tested on: pre-adipocyte cells; experiment: Differentiation of pre-adipocyte cells into mature adipocytes; format: cell-based; conditions: compared to the specific PPAR-γ agonist ciglitazone
Source text: (§2) Therefore, intake of phytanic acid helps to improve insulin sensitivity and may act as a preventative measure against type 2 diabetes and Syndrome X through activation of PPARs and RXR.

[8] = tested on: rat primary hepatocytes; experiment: Glucose uptake in rat primary hepatocytes; format: cell-based; conditions: about 10 to about 100 μM
Source text: as §2

| Structure (SMILES) | MeanAvgDiff (Mean Relative Expression) of glucose-6-phosphatase catalytic subunit [1] | Oral glucose tolerance [2] | Glucose removal rate (% glucose decrease of control) 90 min [3] [%] | Glucose removal rate (% glucose decrease of control) 120 min [3] [%] | Glucose removal rate (% glucose decrease of control) 150 min [3] [%] | Glucose removal rate (% glucose decrease of control) 180 min [3] [%] | Blood glucose levels during the glucose load compared to the control group [3] | Fasting blood glucose levels [4] | Oral glucose tolerance [5] | Oral glucose tolerance [6] | Effects on differentiation of pre-adipocyte cells into mature adipocytes [7] | Uptake of glucose [8] |
| --- | --- | --- | --- | --- | --- | --- | --- | --- | --- | --- | --- | --- |
| O=C(O)CCCC[C@@H]1SC[C@@H]2NC(=O)N[C@@H]21 [Biotin] | 516.66 | improved oral glucose tolerance | 11.6 | 10.2 | 15.3 | 15.0 | Neither biotin nor phytanic acid caused a significant decrease | decreased | improved oral glucose tolerance | improved oral glucose tolerance | – | – |
| CC(C)CCCC(C)CCCC(C)CCCC(C)CC(=O)O (stereo not shown) [Phytanic acid, 3,7,11,15-tetramethylhexadecanoic acid] | – | – | 9.7 | 12.5 | 14.6 | 15.2 | Neither biotin nor phytanic acid caused a significant decrease | – | – | – | only minor effects | enhances uptake of glucose |
| O=C(O[C@@H]1Cc2c(O)cc(O)cc2O[C@@H]1c1cc(O)c(O)c(O)c1)c1cc(O)c(O)c(O)c1 [EGCG, Epigallocatechin gallate] | 484.8 | – | – | – | – | – | – | – | – | – | – | – |
| NCCS [Cysteamin, cysteamine] | 447.42 | – | – | – | – | – | – | – | – | – | – | – |

Source: patent US20050256178A1, “Novel nutraceutical compositions comprising boitin” (priority 2002, published 2005)
